Assays:
[1] = tested on: Magnaporthe arisea (Pyricularia oryzae); experiment: whole plant or invertebrate; assay type: in vivo; settings: 144 h, read-out: inhibit fungal infestation
[2] = tested on: Botrytis cinerea; experiment: Botrytis cinerea/Tomato/Preventive (action against Botrytis on tomato); assay type: in vivo; settings: 72 h, preventive spray, tomato plants cv. Roter Gnom, assessed after 3 days incubation, untreated controls infected over 80%, read-out: inhibit fungal infestation
Procedure: (§1) Botrytis cinerea/Tomato/Preventive (Action Against Botrytis on Tomato) 4 weeks old tomato plants cv. Roter Gnom are treated with the formulated test compound in a spray chamber. Two days after application tomato plants are inoculated by spraying a spore suspension on the test plants. After an incubation period of 3 days at 20° C. and 95% r. h. in a greenhouse the disease incidence is assessed.

[3] = tested on: Pyrenophora teres (Helminthosporium teres); experiment: Pyrenophora teres (Helminthosporium teres)/Barley/Preventive (action against net blotch on barley); assay type: in vivo; settings: 96 h, preventive spray, barley plants cv. Regina, assessed after 4 days incubation, untreated controls infected over 80%, read-out: inhibit fungal infestation
Procedure: Pyrenophora teres (Helminthosporium teres)/Barley/Preventive (Action Against Net Blotch on Barley) 1-week-old barley plants cv. Regina are treated with the formulated test compound in a spray chamber. Two days after application barley plants are inoculated by spraying a spore suspension (2.6×10^4 conidia/ml) on the test plants. After an incubation period of 4 days at 20° C. and 95% r.h. the disease incidence is assessed.

[4] = tested on: Uncinula necator; experiment: Uncinula necator/Grape/Preventive (action against powdery mildew on grape); assay type: in vivo; settings: Erysiphe necator, 168 h, preventive spray, grape seedlings cv. Gutedel, assessed after 7 days incubation, untreated controls infected over 80%, read-out: inhibit fungal infestation
Procedure: Uncinula necator/Grape/Preventive (Action Against Powdery Mildew on Grape) 5 weeks old grape seedlings cv. Gutedel are treated with the formulated test compound in a spray chamber. One day after application grape plants are inoculated by shaking plants infected with grape powdery mildew above the test plants. After an incubation period of 7 days at 24° C./22° C. and 70% r.h. under a light regime of 14/10 h (light/dark) the disease incidence is assessed.

[5] = tested on: Septoria tritici; experiment: Septoria tritici/Wheat/Preventive (action against Septoria leaf spot on wheat); assay type: in vivo; settings: Zymoseptoria tritici, preventive spray, wheat plants cv. Riband, assessed 16-18 days after inoculation, untreated controls infected over 80%, read-out: inhibits fungal infestation
Procedure: Septoria tritici/Wheat/Preventive (Action Against Septoria Leaf Spot on Wheat) 2 weeks old wheat plants cv. Riband are treated with the formulated test compound in a spray chamber. One day after application wheat plants are inoculated by spraying a spore suspension (10^6 conidia/ml) on the test plants. After an incubation period of 1 day at 22° C./21° C. and 95% r.h. plants are kept at 22° C./21° C. and 70% r.h. in a greenhouse. The disease incidence is assessed 16-18 days after inoculation.

[6] = tested on: Puccinia recondite; experiment: Puccinia recondite/Wheat/Preventive (action against brown rust on wheat); assay type: in vivo; settings: 264 h, preventive spray, wheat plants cv. Arina, assessed 11 days after inoculation, untreated controls infected over 80%, read-out: inhibits fungal infestation
Procedure: Puccinia recondite/Wheat/Preventive (Action Against Brown Rust on Wheat) 1 week old wheat plants cv. Arina are treated with the formulated test compound in a spray chamber. One day after application wheat plants are inoculated by spraying a spore suspension ([…] uredospores/ml) on the test plants. After an incubation period of 1 day at 20° C. and 95% r h. plants are kept for 10 days 20° C./18° C. (day/night) and 60% r.h. in a greenhouse. The disease incidence is assessed 11 days after inoculation.

[7] = tested on: Alternaria solani; experiment: Alternaria solani/Tomato/Preventive (action against Alternaria on tomato); assay type: in vivo; settings: 96 h, preventive spray, tomato plants cv. Roter Gnom, assessed after 4 days incubation, untreated controls infected over 80%, read-out: inhibit fungal infestation
Procedure: as §1, with “Alternaria solani/Tomato/Preventive” for “Botrytis cinerea/Tomato/Preventive”, “Alternaria” for “Botrytis”, “4” for “3”, “22° C./18°” for “20°”, “r.h.” for “r. h.”

COc1nnc(C)c(-c2cccs2)c1-c1c(F)cc(F)cc1F [I.h.199, 3-methoxy-6-methyl-5-thiophen-2-yl-4-(2,4,6-trifluorophenyl)-pyridazine]
inhibition at 200 ppm [1]: ≥ 80%
inhibition at 200 ppm [2]: ≥ 80%
inhibition at 200 ppm [3]: ≥ 80%
inhibition at 200 ppm [4]: ≥ 80%
melting point: 124 to 125 °C
inhibition at 200 ppm [5]: ≥ 80%
inhibition at 200 ppm [6]: ≥ 80%
inhibition at 200 ppm [7]: ≥ 80%

Cc1n[nH]c(=O)c(-c2c(F)cc(F)cc2F)c1-c1cccs1 [I.h.196, 6-methyl-5-thiophen-2-yl-4-(2,4,6-trifluorophenyl)-2H-pyridazin-3-one]
melting point: 249 to 251 °C

Cc1nnc(C)c(-c2c(F)cc(F)cc2F)c1-c1cccs1 [I.h.200, 3,6-dimethyl-4-thiophen-2-yl-5-(2,4,6-trifluorophenyl)-pyridazine]
inhibition at 200 ppm [1]: ≥ 80%
inhibition at 200 ppm [2]: ≥ 80%
inhibition at 200 ppm [3]: ≥ 80%
inhibition at 200 ppm [4]: ≥ 80%
melting point: 100 to 102 °C
inhibition at 200 ppm [5]: ≥ 80%
inhibition at 200 ppm [6]: ≥ 80%
inhibition at 200 ppm [7]: ≥ 80%

Cc1nnc(F)c(-c2c(F)cc(F)cc2F)c1-c1cccs1 [I.h.197, 3-fluoro-6-methyl-5-thiophen-2-yl-4-(2,4,6-trifluorophenyl)-pyridazine]
inhibition at 200 ppm [1]: ≥ 80%
inhibition at 200 ppm [2]: ≥ 80%
inhibition at 200 ppm [3]: ≥ 80%
melting point: 71 to 74 °C
inhibition at 200 ppm [5]: ≥ 80%
inhibition at 200 ppm [6]: ≥ 80%
inhibition at 200 ppm [7]: ≥ 80%

COc1cc(F)c(-c2c(OC)nnc(C)c2-c2cccs2)c(F)c1 [I.h.254, 4-(2,6-difluoro-4-methoxyphenyl)-3-methoxy-6-methyl-5-thiophen-2-yl-pyridazine]
melting point: 130 to 133 °C

Cc1nnc(Cl)c(-c2c(F)cc(F)cc2F)c1-c1cccs1 [I.h.198, 3-chloro-6-methyl-5-thiophen-2-yl-4-(2,4,6-trifluorophenyl)-pyridazine]
inhibition at 200 ppm [1]: ≥ 80%
inhibition at 200 ppm [2]: ≥ 80%
inhibition at 200 ppm [3]: ≥ 80%
inhibition at 200 ppm [4]: ≥ 80%
melting point: 90 to 92 °C
inhibition at 200 ppm [5]: ≥ 80%
inhibition at 200 ppm [6]: ≥ 80%
inhibition at 200 ppm [7]: ≥ 80%
